In US7795246B2, “Particle-forming compositions containing fused pyrrolocarbazoles” (Cephalon, Inc., priority 1998, dated 2010):
≈ marks a conversion by molar mass, not a printed value. Read-outs that look alike come from different tables or passages of the source.

Assays:
[1] = cited from earlier work
physchem = assay type: physicochemical
Text: Thus, dissolving the fused pyrrolocarbazole initially in this particular particle-forming composition achieves a better than 3.2-fold increase in fused pyrrolocarbazole concentration in the final solution. Because initial contact with an aqueous medium occurs in vitro or in vivo, the non-aqueous particle-forming compositions are useful for therapeutic administration of a fused pyrrolocarbazole to a mammal.

[2] = tested on: rat tumor model of prostate cancer; assay: Rat tumor model of prostate cancer; assay type: in vivo
in vivo = conditions: beagle, dog, iv, 1 mg/kg
Description: An intravenous dose was included as the third formulation in the crossover design. […] The plasma concentrations, as determined by HPLC with fluorescence detection, were normalized to a 1 mg/kg dose. Pharmacokinetic parameters, including peak plasma concentration (Cmax), time to peak plasma concentration (Tmax), apparent elimination half life (t1/2), area under the curve (AUCoo) and the absolute bioavailability (F %) were determined.

[3] = Bioavailability in monkeys (plasma pharmacokinetics, HPLC); assay type: in vivo; conditions: cynomolgus monkey
Description: Pharmacokinetic parameters were measured following intravenous (i.v.) administration and oral (p.o.) administration. The test composition consisted of four male cynomolgus monkeys. The i.v. dose was administered as a bolus, at a dosage level of 3 mg/kg. The oral doses were administered as soft gelatin capsules, at a dosage level of 10 mg/kg (2 capsules/monkey/dose). The oral formulations were as described in Table 6, below.
Blood samples were collected at predetermined time points. […] Pharmacokinetic parameters were estimated by non-compartmental methods. In Table 7, Cmax is peak plasma concentration; Tmax is time to peak plasma concentration; Tt/2 is apparent elimination half-life; AUC is area under the curve; and F % is absolute bioavailability.

## COC(=O)[C@@]1(O)C[C@H]2O[C@]1(C)n1c3ccccc3c3c4c(c5c6ccccc6n2c5c31)C(=O)NC4 [Compound K-252a, K-252a]
[1]
  solubility in water: insoluble

## CC12OC(CC1(O)CO)n1c3ccccc3c3c4c(c5c6ccccc6n2c5c31)CNC4=O (stereo not shown) [Compound IIa-12]
physchem
  solubility in water: essentially no solubility
physchem; aqueous with cosolvent or surfactant or cyclodextrin, kinetic from dmso stock
  solubility: 570 µg/mL (≈ 1300 µM)
physchem; aqueous with cosolvent or surfactant or cyclodextrin, thermodynamic from solid
  solubility: 180 µg/mL (≈ 410 µM)
physchem; organic solvent or mixture
  solubility: 28400 µg/mL (≈ 64700 µM)
[2]
  anticancer activity: anticancer activity
In vivo
  clearance: 13.2 mL/min/kg
  half-life: 69.6 min
In vivo; apparent volume of distribution Vc
  Vd: 0.96 L/kg
In vivo; apparent volume of distribution Vβ
  Vd: 1.35 L/kg

## C[C@]12O[C@H](C[C@]1(O)C(=O)O)n1c3ccccc3c3c4c(c5c6ccccc6n2c5c31)CNC4=O [Compound K-252b, K-252b]
[1]
  solubility in water: insoluble

## C[C@@H]1O[C@@H](n2c3ccccc3c3c4c(c5c6ccccc6[nH]c5c32)CNC4=O)[C@H](O)[C@H](O)[C@H]1O [Compound K-252d, K-252d]
[1]
  solubility in water: insoluble

## CCSCc1ccc2c(c1)c1c3c(c4c5cc(CSCC)ccc5n5c4c1n2C1CC(O)(C(=O)OC)C5(C)O1)CNC3=O (stereo not shown) [Compound IIa-51]
[3]; i.v. bolus 3 mg/kg, PEG 1450:Pluronic F68:hydroxypropyl-β-cyclodextrin:water
  Tt/2: 3.0 h
[3]; male, plasma, iv, i.v. bolus 3 mg/kg, PEG 1450:Pluronic F68:hydroxypropyl-β-cyclodextrin:water, read-out: AUC0-4
  AUC(0-t): 2500 ± 348 ng·h/mL
[3]; male, plasma, iv, i.v. dose 3 mg/kg
  clearance: 18.3 mL/min/kg
[3]; male, plasma, iv, i.v. dose 3 mg/kg, read-out: mean volume of distribution
  Vd: 4.9 ± 0.7 L/kg
